Test results taken from PubChem BioAssay (NCI).
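GI50 = concentration required for 50% inhibition of growth. TGI marks complete inhibition of growth.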

Tests used:
Test in all cases: inhibition of tumour cell growth, NCI panel, 384-well format
U251 glioblastoma = system: U251 glioblastoma
TK-10 renal = system: TK-10 renal
NCI-H460 NSCLC = system: NCI-H460 NSCLC
NCI-H23 lung = system: NCI-H23 lung
HCC-2998 colon = system: HCC-2998 colon
SF-539 CNS = system: SF-539 CNS
SK-MEL-5 melanoma = system: SK-MEL-5 melanoma
LOX IMVI melanoma = system: LOX IMVI melanoma
HOP-92 NSCLC = system: HOP-92 NSCLC
KM12 colon = system: KM12 colon
T-47D breast = system: T-47D breast
HCT-15 colon = system: HCT-15 colon
EKVX NSCLC = system: EKVX NSCLC

## CNC(=O)c1ccc(-c2cnc3ncc(Cc4ccc5ncccc5c4)n3n2)cc1F
U251 glioblastoma
  GI50: > 100 µM
  TGI: > 100 µM
TK-10 renal
  GI50: > 100 µM
  TGI: > 100 µM
NCI-H460 NSCLC
  GI50: > 100 µM
  TGI: > 100 µM
NCI-H23 lung
  GI50: > 100 µM
  TGI: > 100 µM
HCC-2998 colon
  GI50: > 100 µM
  TGI: > 100 µM
SF-539 CNS
  GI50: > 100 µM
  TGI: > 100 µM
SK-MEL-5 melanoma
  GI50: > 100 µM
  TGI: > 100 µM
LOX IMVI melanoma
  GI50: > 100 µM
  TGI: > 100 µM
HOP-92 NSCLC
  GI50: > 75 µM
  TGI: > 100 µM
KM12 colon
  GI50: > 77.3 µM
  TGI: > 100 µM
T-47D breast
  GI50: > 100 µM
  TGI: > 100 µM
HCT-15 colon
  GI50: > 100 µM
  TGI: > 100 µM
EKVX NSCLC
  GI50: > 100 µM
  TGI: > 100 µM
